Experimental data from patent US20250171821A1, “HIF-1 ACTIVATORS AND USES THEREOF” (Ramot at Tel-Aviv University Ltd., priority 2022, published 2025).
Counter-ions that a name gives are not always drawn. Where no end group is shown, it is not given here.

What was measured:
MG-63 cells = experiment: Collagen-I immunofluorescence in MG-63 cells treated with iron chelator; type: cell-based, human; conditions: 48 hours
Description: For microscopy images, cells were cultured in a 24-well plate and incubated with medium supplemented with the indicated concentrations of the treating entity (e.g., peptides or DFO) at 37° C. under 5% CO2. Cells were then washed additional three times with cold phosphate-buffered saline (PBS), following a 20 minute fixation in a 4% paraformaldehyde (PFA) in PBS and extensively washed three times with PBS to remove the PFA, followed by a 20 minute wash with blocking and penetration solution (PBS with 0.1% Triton X-100 and 2% BSA). Fixed cells were incubated with antibodies for 1 hour at 25° C., washed, and developed together with fluorescence-tagged secondary antibodies (Alexa 488 and 647, Abcam). Cell nuclei were stained with 1 mg/mL 4′,6-diamidino-2-phenylindole (DAPI Staining Solution ab228549, Abcam). Images were taken using a ZEISS LSM 900 in confocal mode, using Zen 3.1. Fluorescence readouts were obtained at ex/em of 358/461, 495/519 nm, and 652/668 nm for blue, green, and red, respectively.
The present inventors have incubated MG-63 cells with deferoxamine mesylate (DFO), an iron chelator, to explore the possibility of enhancing Collagen-I levels in these cells.

NIH/3T3 cell line [1] = experiment: Collagen type 1 immunofluorescence in NIH/3T3 cells (Incucyte); type: cell-based, mouse; conditions: 48 hours; for concentrations with significant increase of collagen type 1 normalized to number of cells vs untreated cells: serial dilution 5-0.02 μM, one-way ANOVA
Description: (§1) Embryonic mouse fibroblast NIH/3T3 cell line (ATCC) were seeded at a concentration of 50*10^3 cells/well on 96 well glass bottom plate (P96-1.5H-N, Cellvis) for the immunofluorescence experiment and on cell culture microplate, 96 well, PS, F-Bottom (655090, greiner) for the viability experiment. The cells were cultured with Dulbecco's modified Eagle's medium (DMEM) supplemented with 10% fetal calf serum, 1% Penicillin-Streptomycin solution and 1% L-glutamine (All purchased from Rhenium). At 24 hours post seeding, cells were treated for another 48 hours by replacing them with the cell medium supplemented with a serial dilution (5-0.02 μM, factor dilution of 2) of the ML228, Daprodustat, Enarodustat, Molidustat, Vadadustat or Roxadustat molecules dissolved in DMSO. The final DMSO concentration in the cell medium was 0.01%. Cells were maintained in an incubator at 37° C. in a humidified atmosphere containing 5% CO2.
At 48 hours post treatment with either Daprodustat, Enarodustat, Molidustat, Vadadustat or Roxadustat, cells were fixed for 10 minutes together with their media with 8% paraformaldehyde (PFA, Electron Microscopy Sciences) dissolved in phosphate-buffered saline (PBS, Invitrogen) to a final concentration of 4% PFA, without any wash to avoid cells detachment from the glass. Cells were briefly washed four times with ice-cold PBS to remove the PFA and kept overnight at 4° C. The following day, a blocking solution which contains 1.5% Bovine Serum Albumin (Sigma Aldrich) dissolved in PBS was applied for 30 minutes, followed by an overnight incubation at 4° C. with recombinant rabbit anti-mouse Collagen-I 1° antibody (primary Ab) [EPR24331-53] (ab270993, Abcam), dissolved in the blocking solution (1:1000 dilution). The following day, cells were washed for 3 times with PBS (5 minutes each), followed by immunostaining with goat anti-rabbit IgG H&L (Alexa Fluor® 488) 2° antibody (secondary Ab) (ab150077, Abcam) dissolved in blocking solution (1:1000 dilution). Cells were washed again for 3 times with PBS (5 minutes each), stained for 30 minutes with DRAQ5™ (ab108410, Abcam) for nuclei staining dissolved in PBS (1:1000 dilution), and washed once again with PBS. For the ML228 experiment, cells were washed with PBS before applying 4% PFA dissolved in PBS. Then, fixed cells were additionally permeabilized with 0.2% Triton™ X-100 (Merck) dissolved in PBS, additionally stained with Phalloidin-Atto 594 (51927, Sigma Aldrich) for F-Actin staining for 1 hour (1:250 dilution) together with the aforementioned secondary antibody, followed by 10 minutes incubation with DAPI staining solution (ab228549, Abcam) for nuclei staining dissolved in PBS (1:1000 dilution).
Images were taken using a ZEISS LSM 900 in wide-field or in the LSM confocal detection mode (ML228 experiment), using Zen 3.1. Fluorescence readouts were obtained at excitation/emission: 353/465 nm (DAPI), 493/517 nm (Collagen-I), 590/618 (F-Actin) and 647/683 nm (DRAQ5) using a Plan-Apochromat 20×/0.8 M27 objective.
Image acquisition and quantification were performed by Incucyte SX5 (Sartorius) using software version 2022B Rev2. A standard scan was done for 9 images per well using 20× objective, 2 optical modules (green at excitation/emission of 453-485 nm/494-533 nm in 300 msec acquisition time, and near-IR at excitation/emission of 648-674 nm/685-756 nm in 400 msec acquisition time, including Phase channel) following immunofluorescence protocol. For the image analysis, 2-6 replicates per condition were used. Using the Basic Analyzer mode, “Phase Object Confluence (%)” was acquired using the Phase channel. This measurement is the percentage of the image area occupied by cells. “Total Collagen-I Integrated Intensity Per Image (GCU×μm^2/Image)” was acquired using the green optical module. GCU stands for Green calibrated Unit, while this measurement is the total sum of the Collagen-I objects' fluorescent intensity in the image. “#Cells (Per image)” was acquired by the near-IR optical module. […]

NIH/3T3 cell line [2] = experiment: Cell confluence / number of cells per image in NIH/3T3 cells; type: cell-based, mouse; conditions: 48 hours; for toxicity suggested by number of cells: 5-0.02 μM
Description: as §1
Image acquisition and quantification were performed by Incucyte SX5 (Sartorius) using software version 2022B Rev2. A standard scan was done for 9 images per well using 20× objective, 2 optical modules (green at excitation/emission of 453-485 nm/494-533 nm in 300 msec acquisition time, and near-IR at excitation/emission of 648-674 nm/685-756 nm in 400 msec acquisition time, including Phase channel) following immunofluorescence protocol. For the image analysis, 2-6 replicates per condition were used. Using the Basic Analyzer mode, “Phase Object Confluence (%)” was acquired using the Phase channel. This measurement is the percentage of the image area occupied by cells. “Total Collagen-I Integrated Intensity Per Image (GCU×μm^2/Image)” was acquired using the green optical module. GCU stands for Green calibrated Unit, while this measurement is the total sum of the Collagen-I objects' fluorescent intensity in the image. “#Cells (Per image)” was acquired by the near-IR optical module. This measurement was calculated by counting the number of nuclei per image.
Multiple comparisons were performed by ordinary one-way ANOVA followed by Dunnett's post-hoc statistical hypothesis for comparing each condition mean to the control mean. Statistical analysis was done using GraphPad Prism version 10.0.0 for Windows, GraphPad Software, Boston, Massachusetts USA, worldwideweb(dot)graphpad(dot)com. For statistical analysis, significance was set as (*) p≤0.05; (**) p≤0.01; (***) p≤0.001; (****) p≤0.0001 and (ns; not significant) p>0.05.

[3] = molecular target: T1, PHD2/EGLN1 (HIF-prolyl hydroxylase 2) (human, UniProt Q9GZT9 181-426); experiment: fluorescence polarization; PHD protein titrated into 200 nM FITC-labeled peptide; single site fit
T1 construct: The protein was expressed as a cleavable GST fusion and the eluate of the GST column was used; also called PHD enzyme; PHD protein
Description: Fluorescence polarization (FP) assay—Fluorescence Polarization (FP) measurements were performed on samples arrayed in a 96-well plate using Biotek HybridH1 reader equipped with a polarized optic system. Binding assay was evaluated by adding variable concentrations of PHD protein into 200 nM of FITC-labeled peptides. Experimental polarization data were fitted using GraphPad Prism9 into a single site binding model, with error bars representing standard deviation.

T1 sequence (Q9GZT9 other isoform, or with tags, fused parts or gaps limits assumed): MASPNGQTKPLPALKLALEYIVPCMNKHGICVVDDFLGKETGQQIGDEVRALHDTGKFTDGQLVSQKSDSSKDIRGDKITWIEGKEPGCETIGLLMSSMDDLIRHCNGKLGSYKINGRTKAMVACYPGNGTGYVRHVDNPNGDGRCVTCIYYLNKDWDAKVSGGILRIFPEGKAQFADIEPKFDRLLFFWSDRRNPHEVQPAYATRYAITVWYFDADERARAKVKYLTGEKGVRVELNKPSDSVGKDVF

How did the “DFO concentration giving maximal Collagen-I levels” value (MG-63 cells; normalized to β-tubulin) turn out when `CC(=O)N(O)CCCCCNC(=O)CCC(=O)N(O)CCCCCNC(=O)CCC(=O)N(O)CCCCCN` [DFO, Deferoxamine mesylate] was run?
The value was 10 to 20 µM.

What about the Collagen-I production (MG-63 cells; even at low DFO concentrations such as 0.15 μM) of the same molecule?
The Collagen-I production was “increased Collagen-I production”.

What does the source list for `O=C(O)CNC(=O)C1C(=O)N(C2CCCCC2)C(=O)N(C2CCCCC2)C1=O` [Daprodustat, N-[(1,2-Dicyclohexylhexahydro-2,4,6-trioxo-5-pyrimidinyl)carbonyl]glycine]?
concentrations with significant increase of collagen type 1 normalized to number of cells vs untreated cells (NIH/3T3 cell line [1]): 0.31 to 5 µM; number of cells compared to untreated cells (NIH/3T3 cell line [2]; 0.08 μM Daprodustat, p<0.0001): lower number of cells; toxicity suggested by number of cells (NIH/3T3 cell line [2]): no toxicity; number of cells compared to untreated cells (NIH/3T3 cell line [2]; serial dilution 5-0.02 μM): no significant difference

Which results are given for `O=C(O)CNC(=O)c1c(O)cc(CCc2ccccc2)n2ncnc12` [Enarodustat, N-[[7-Hydroxy-5-(2-phenylethyl)[1,2,4]triazolo[1,5-a]pyridin-8-yl]carbonyl]glycine]?
concentrations with significant increase of collagen type 1 normalized to number of cells vs untreated cells (NIH/3T3 cell line [1]): 0.31 to 5 µM; toxicity suggested by number of cells (NIH/3T3 cell line [2]): no toxicity; number of cells compared to untreated cells (NIH/3T3 cell line [2]; serial dilution 5-0.02 μM): no significant difference

What does the source list for `O=c1c(-n2ccnn2)c[nH]n1-c1cc(N2CCOCC2)ncn1` [Molidustat, 1,2-Dihydro-2-[6-(4-morpholinyl)-4-pyrimidinyl]-4-(1H-1,2,3-triazol-1-yl)-3H-pyrazol-3-one]?
concentrations with significant increase of collagen type 1 normalized to number of cells vs untreated cells (NIH/3T3 cell line [1]): 0.63 to 5 µM; toxicity suggested by number of cells (NIH/3T3 cell line [2]): toxic effect; number of cells compared to untreated cells (NIH/3T3 cell line [2]; serial dilution 5-0.02 μM): significantly lower

For `Cc1nc(C(=O)NCC(=O)O)c(O)c2ccc(Oc3ccccc3)cc12` [Roxadustat, N-[(4-Hydroxy-1-methyl-7-phenoxy-3-isoquinolinyl)carbonyl]glycine], which “concentrations with significant increase of collagen type 1 normalized to number of cells vs untreated cells” value (NIH/3T3 cell line [1]) is on record?
The value was 0.08 to 5 µM.

What about the “toxicity suggested by number of cells” value (NIH/3T3 cell line [2]) of the same molecule?
Its value is “no toxicity”.

And the “number of cells compared to untreated cells” value (NIH/3T3 cell line [2]; serial dilution 5-0.02 μM)?
The value was “significantly higher”.

For `O=C(O)CNC(=O)c1ncc(-c2cccc(Cl)c2)cc1O` [Vadadustat, N-[[5-(3-Chlorophenyl)-3-hydroxy-2-pyridinyl]carbonyl]glycine], which “collagen type 1 expression compared to untreated cells” value (NIH/3T3 cell line [1]; 0.02-5 μM) is on record?
The value was “significant increase”.

What about the “toxicity suggested by number of cells” value (NIH/3T3 cell line [2]) of the same molecule?
Its value is “no toxicity”.

What about the “number of cells compared to untreated cells” value (NIH/3T3 cell line [2]; serial dilution 5-0.02 μM) of the same molecule?
The value was “significantly higher”.

B1: EPAS1 peptide (FITC-labeled) (peptide)
peptide: ELDLETLAPYIPMDGEDFQL
modifications: also: FITC label, position not given here
notes: The FP assay used 200 nM of FITC-labeled peptide; also called EPAS1-derived peptide
For B1, which Kd [3] is on record?
Its Kd is 4 µM.

B2: HIF peptide (FITC-labeled) (peptide)
peptide: DLDLEALAPYIPADDDFQLR
modifications: also: FITC label, position not given here
notes: The FP assay used 200 nM of FITC-labeled peptide; also called HIF1 peptide
How did the Kd [3] turn out when B2 was run?
The Kd was 7 µM.
